Data: patent US20200246365A1, “COMPOUNDS, PHARMACEUTICAL COMPOSITIONS AND USE THEREOF AS INHIBITORS OF RAN GTPASE” (THE ROYAL INSTITUTION FOR THE ADVANCEMENT OF LEARNING / …, priority 2017, published 2020)

Columns and labels:
ARPE-19 cells [1] = experiment: Clonogenic survival assay, ARPE-19; format: cell-based, human; details: for effect on normal ARPE-19 cell line in detailed clonogenic assay: different concentrations
Method: (§1) The human EOC cell lines used (TOV81D, TOV112D, OV90, TOV21G, OV866(2), TOV1369(R), OV1369(R2), TOV1946, OV1946, TOV2295(R), OV4485) were derived in our laboratory from patients' tumors (TOV) or ascites (OV). All EOC cell lines were maintained in a low oxygen condition of 7% O2 and 5% CO2 and grown in OSE medium (Wisent, Montreal, QC) supplemented with 10% FBS (Wisent), 0.5 μg/mL amphotericin B (Wisent) and 50 μg/mL gentamicin (Life Technologies Inc., Burlington, ON). The human retinal epithelial cell line ARPE-19 was purchased from American Type Culture Collection (ATCC, Manassas, Va.) and maintained in DMEM-F12 (Wisent) supplemented with 10% FBS (Wisent), 0.5 μg/mL amphotericin B (Wisent) and 50 μg/mL gentamicin (Life Technologies Inc.).
(§2) Clonogenic assays were performed as previously described. Colonies were counted under a stereo microscope and reported as percent of control. IC50 values were determined using Graph Pad Prism 5 software (GraphPad Software Inc., San Diego, Calif.). Each experiment was performed in duplicate and repeated three times. Sensitivity of the cell lines to small molecules inhibitors of Ran was assessed using a concentration range of 0-50 μM.
(§3) Small molecules inhibitors of Ran were dissolved in 100% dimethyl sulfoxide (DMSO) and then further diluted in complete culture media for in vitro experiments. Drugs were added 24 hours after seeding.

Ran-GTP [2] = target: T1, Ran-GTP (Homo sapiens, UniProt P62826); experiment: Ran activation (Ran-GTP pull-down) assay in TOV112D cells; format: cell-based; details: 1 hour treatment, vs DMSO
Method: Cells were seeded onto 6-well tissue culture plates in such a way that cell confluence reaches approximately 70% the day of experiment. The day of experiment cells were treated for 1 hour with the indicated compounds prior to protein extraction and quantification. Assays were performed using the Ran activation assay kit (Cell Biolabs). Briefly, 400 μg of lysates were incubated for one hour at 4° C. with agarose beads conjugated to RANBP1, which specifically binds Ran-GTP. Beads were pelleted, washed, and re-suspended in SDS-PAGE buffer, followed by immunoblotting with an anti-Ran antibody.

[3] = target: T2, recombinant human Ran protein (Homo sapiens, UniProt P62826); experiment: Surface Plasmon Resonance (SPR) binding to immobilized Ran
T2 construct: Recombinant Ran protein was purchased from Sigma-Aldrich Inc. (R3152)
Method: SPR experiments were carried out using the Biacore 3000 system. Recombinant Ran protein was purchased from Sigma-Aldrich Inc. (R3152). The running buffer contained PBS, pH7.4, 1 mM GDP, 2 mM MgCl2 and 0.2% DMSO. The regeneration buffer contained 10 mM glycine (pH 2.5). Ran-GDP protein was immobilized onto a CM5 chip; samples of compounds in running buffer were injected at 30 μL/min for 10 minutes contact time followed by 5 minutes regeneration. Kd was calculated using the GraphPad Prism 5 software.

TOV112D cells [4] = experiment: Clonogenic survival assay, TOV112D; format: cell-based, human; details: for IC50: Homo sapiens, read-out: IC50 value for the TOV112D cell line by clonogenic assay; for IC50 / IC50 value for the TOV112D cell line by clonogenic assay: TOV112D
Method: as §1, §2, §3

TOV112D cells [5] = experiment: IncuCyte cell proliferation assay, TOV112D; format: cell-based, human; details: for cell growth of TOV112D (new M36 analogs screen): 40 μM
Method: as §1
(§4) Cells (2,000 cells/well) were plated in a 96-well plate. The next day, compounds were added at the indicated concentrations. Following treatment, cell confluence was imaged by phase contrast using the IncuCyte live cell monitoring system (Essen BioScience, Ann Arbor, Mich.). Frames were captured at 2-hour intervals using a 10× objective. For Ran knock down experiments, cells were seeded in a 96-well plate (4,000 cells/well) directly after transfection. Cell confluence monitoring started the next day as described above.
as §3

ARPE-19 cells [6] = experiment: IncuCyte cell proliferation assay, ARPE-19; format: cell-based, human; details: for cell growth of ARPE-19 (new M36 analogs screen): 40 μM; for effect on normal ARPE-19 cells at low concentrations: 0.5 to 2.5 μM
Method: as §1, §4, §3

[7] = system: breast cancer cell lines (MDA231, MDA468, HCC1806, ZR75, T47D, BT474, HCC1954); experiment: Cell proliferation, breast cancer cell lines; format: cell-based
[8] = Tolerance test in NRG mice; format: in vivo; details: daily i.p. 75 mg/kg for 15 days
Method: For the tolerance test, M36 and QR20 compounds were dissolved in DMSO 10%, Kolliphor® EL 10%, PEG-400 20% and PBS 60% and injected intraperitoneally into 6-week-old female Nod Rag Gamma (NRG) mice (The Jackson laboratory, Bar Harbor, Me.) daily at 75 mg/kg. During this study, mice (n=3) were monitored for survival and weight loss/gain.

[9] = Pharmacokinetics in CD1 mice; format: in vivo; details: 50 mg/kg
Method: For the pharmacokinetic studies, 6-week-old female CD1 mice (Charles River laboratories, Senneville, QC, Canada) received a single intravenous or intraperitoneal injection of M36 or QR20 (50 mg/kg), dissolved in DMSO 10%, Kolliphor® EL 10%, PEG-400 20% and PBS 60% (QR20 was also dissolved in DMSO 10%, PBS 90%). For each time point (15 minutes, 30 minutes, […], 1 hour, 2 hours and 6 hours), 3 mice were sacrificed and blood was collected by cardiac puncture. Thereafter, the plasma level of each compound was measured by mass spectrometry.

[10] = system: other aneuploid EOC cells; experiment: IncuCyte cell proliferation assay, other aneuploid EOC cell lines; format: cell-based, human; details: 80 μM
Method: as §1, §4, §3

Ran-GTP [11] = target: T1, Ran-GTP; experiment: Ran-GTP immunofluorescence in TOV112D cells; format: cell-based; details: TOV112D cells vs DMSO-treated
Method: M36 and R28-treated and control TOV112D cells grown on coverslips were washed with 1×PBS, fixed in 4% paraformaldehyde and permeabilized with 0.25% Triton X-100 (Sigma-Aldrich Inc.). After blocking (4% BSA and 4% FBS in PBS), coverslips were incubated with the monoclonal anti-RanGTP antibody (26915, NewEastBioscences) diluted 1:100 in blocking buffer for 2 hours at room temperature. Subsequently, samples were incubated with Cy-5 secondary antibody (1:500, Life Technologies Inc.) for 1 hour and coverslips were mounted onto slides using Prolong® Gold anti-fade reagent with DAPI (Life Technologies Inc.). Samples were visualized under a Zeiss microscope (Zeiss observer Z1) with a 20× objective.

[12] = system: prostate cancer cell lines (LNCaP, 22RV1, PC3, DU145); experiment: Cell proliferation, prostate cancer cell lines; format: cell-based
cleaved PARP = experiment: Apoptosis by PARP cleavage (Western blot); format: cell-based, human; details: 96 hours after treatment
Method: Cells were lysed with RIPA buffer containing protease inhibitors. Whole cell lysates were run through a Bradford assay (Thermo Fisher Scientific) for protein quantification. Around 25-50 μg of proteins were separated onto 12.5% SDS-PAGE and transferred onto nitrocellulose membranes. The resultant blots were probed with Ran (1:10000, sc-271376 Santa Cruz Biotechnology, Dallas, Tex.), cleaved PARP (1:1000, #9541, Cell Signaling Technology Inc., Danvers, Mass.), GAPDH (1:2500, #2118, Cell Signaling Technology Inc.) or beta-actin (1:50000, ab6276, Abcam Inc., Toronto, ON, Canada) primary antibodies overnight at 4° C. then with peroxidase-conjugated secondary antibodies for 2 hours at room temperature. Proteins were detected using enhanced chemiluminescence (Thermo Fisher Scientific).

In the case of NC(=S)[C@@H]1C[C@H](COC(=O)c2ccccc2)[C@@H](OC(=O)c2ccccc2)[C@H]1OC(=O)c1ccccc1 [M26], the “colony formation of ARPE-19 cells” value (ARPE-19 cells [1]; single dose 10 μM) is reported as “not normal cells”, the “active Ran-GTP levels (pull-down)” value (Ran-GTP [2]) is reported as “marked decrease in Ran-GTP levels” and the “binding to the immobilized Ran protein” value ([3]; different compound concentrations, reached saturation) is reported as “concentration-dependent binding”. For the same molecule, the “colony formation of TOV112D cells” value (TOV112D cells [4]; single dose 10 μM) was “specifically inhibited colony formation of EOC”.

For NC(=S)[C@H]1O[C@H](COCc2ccccc2F)[C@@H](OCc2ccccc2F)[C@H]1OCc1ccccc1F [M46], the “active Ran-GTP levels (pull-down)” value (Ran-GTP [2]) was “weaker than that of M36” and the IC50 (TOV112D cells [4]) was 12.5 ± 0.36 µM.

For Fc1ccc(CNCc2cc(CNCc3ccc(F)cc3)cc(CNCc3ccc(F)cc3)c2)cc1 [M48], the “cell growth of TOV112D (new M36 analogs screen)” value (TOV112D cells [5]; day 4) was “completely inhibited cell growth”, the “cell growth of ARPE-19 (new M36 analogs screen)” value (ARPE-19 cells [6]; day 4) was “completely inhibited cell growth” and the “effect on normal ARPE-19 cells at low concentrations” value (“effect on normal ARPE-19 cells” for short) (ARPE-19 cells [6]) was “also affected normal ARPE-19 cells”. For the same molecule, the “IC50 value for the TOV112D cell line by clonogenic assay” value (TOV112D cells [4]) was “low IC50 values”.

With c1ccc(CNCc2cc(CNCc3ccccc3)cc(CNCc3ccccc3)c2)cc1 [M51] the “cell growth of TOV112D (new M36 analogs screen)” value (TOV112D cells [5]; day 4) was “completely inhibited cell growth”, the “TOV112D cell growth at low concentrations” value (TOV112D cells [5]; 0.5, 1, 2.5 μM) was “inhibited TOV112D cell growth” and the “cell growth of ARPE-19 (new M36 analogs screen)” value (ARPE-19 cells [6]; day 4) was “completely inhibited cell growth”. For the same molecule, the “effect on normal ARPE-19 cells” value (ARPE-19 cells [6]) was “did not affect normal cells”, the IC50 (TOV112D cells [4]) was ~0.66 µM and the “effect on breast cancer cell lines” value [7] was “effective in one triple negative breast cancer cell line”.

For COc1ccc(CNCc2cc(CNCc3ccc(OC)cc3)cc(CNCc3ccc(OC)cc3)c2)cc1 [M52], the “cell growth of TOV112D (new M36 analogs screen)” value (TOV112D cells [5]; day 4) was “completely inhibited cell growth”, the “cell growth of ARPE-19 (new M36 analogs screen)” value (ARPE-19 cells [6]; day 4) was “completely inhibited cell growth” and the “effect on normal ARPE-19 cells” value (ARPE-19 cells [6]) was “also affected normal ARPE-19 cells”. The “IC50 value for the TOV112D cell line by clonogenic assay” value (TOV112D cells [4]) was “low IC50 values”.

In the case of COc1ccc(CN(C)Cc2cc(CN(C)Cc3ccc(OC)cc3)cc(CN(C)Cc3ccc(OC)cc3)c2)cc1 [M55], the “cell growth of TOV112D (new M36 analogs screen)” value (TOV112D cells [5]; day 4) is reported as “discriminative effect between normal ARPE-19 and aneuploid TOV112D cells”, the “cell growth of TOV112D, detailed proliferation assay” value (TOV112D cells [5]; 5, 10, 20 μM) is reported as “specifically inhibit cell growth of the TOV112D cells even at a low concentration of 5 μM” and the IC50 (TOV112D cells [4]) is reported as 4.16 µM.

In the case of c1ccc(CN2CCN(C(c3ccccc3)C3CCCCC3)CC2)cc1 (stereo not shown) [QR20], the “TOV112D cell proliferation, R20 salts” value (TOV112D cells [5]; 20, 40, 80 μM) is reported as “exactly the same activity to inhibit TOV112D cell proliferation”, the “ARPE-19 cell proliferation, R20 salts” value (ARPE-19 cells [6]; 20, 40, 80 μM) is reported as “without affecting the normal ARPE-19 cells” and the tolerance [8] is reported as “well tolerated”. For the same molecule, the weight loss [8] was “no weight loss” and the “pharmacokinetics profile based on AUC values” [9] was “good pharmacokinetics profiles”.

In the case of c1ccc(CN2CCN(C(c3ccccc3)C3CCCCC3)CC2)cc1 (stereo not shown) [R20], the “cell proliferation of TOV112D (1292 analogs screen)” value (TOV112D cells [5]; 80 μM, vs normal ARPE-19) is reported as “greater efficacy in inhibiting cell proliferation”, the “effect on normal ARPE-19 cell line in detailed clonogenic assay” value (ARPE-19 cells [1]) is reported as “no effect” and the “active Ran-GTP levels (pull-down)” value (Ran-GTP [2]) is reported as “concentration-dependent decrease in Ran-GTP levels”. The “cell proliferation of other aneuploid EOC cells” value [10] was “inhibited cell proliferation” and the IC50 (TOV112D cells [4]) was 9.91 ± 0.36 µM.

For COc1ccc(CN2CCN(Cc3ccc(OC)c(N(C(=O)Nc4cccc(F)c4)C(=O)Nc4cccc(F)c4)c3)CC2)cc1 [R28], the “Ran-GTP levels by immunofluorescence” value (Ran-GTP [11]) was “very low levels of active Ran-GTP”, the “proliferation of TOV112D cells (R20 analogs screen)” value (TOV112D cells [5]; 20, 40 and 80 μM, day 4) was “more efficient than compound R20 to inhibit proliferation of TOV112D cells” and the “effect on prostate cancer cell lines” value [12] was “effective in both cancer types”. For the same molecule, the “proliferation of ARPE-19 cells (R20 analogs screen)” value (ARPE-19 cells [6]; 20, 40 and 80 μM, day 4) was “without affecting normal ARPE-19 cells”, the IC50 (TOV112D cells [4]) was 2.99 ± 0.19 µM and the “effect on breast cancer cell lines” value [7] was “effective in both cancer types”.

Oc1ccc(CCCCCCc2ccc(O)cc2)cc1 [V188] gave a Kd ([3]; Ran-GDP immobilized on CM5 chip) of 380 nM and an IC50 (TOV112D cells [4]) of 7.6 ± 0.32 µM.

With COc1ccc(CN2CCN(Cc3ccc(OC)cc3)CC2)cc1 [compound 1292] the “effect on normal ARPE-19 cell line in detailed clonogenic assay” value (ARPE-19 cells [1]) was “did not have any effect”, the “active Ran-GTP levels (pull-down)” value (Ran-GTP [2]) was “concentration-dependent decrease in Ran-GTP levels” and the “apoptosis (cleaved PARP on Western blot)” value (cleaved PARP) was “induction of apoptosis”. For the same molecule, the “cell proliferation of other aneuploid EOC cells” value [10] was “inhibited cell proliferation” and the IC50 (TOV112D cells [4]) was 15 ± 0.37 µM.
